ChEMBL document CHEMBL4002560, “Synthesis and biological evaluation of novel isoxazolines linked via piperazine to 2- benzoisothiazoles as potent apoptotic agents” (Eur J Med Chem, 2017)
Calls of active or inactive are those of the source. The rule behind the calls is not given here.

Assays:
[1] = Induction of apoptosis in mouse EAT cells assessed as early apoptotic cells with membrane blebbing and condensed nuclei at 50 uM after 16 hrs by acridine orange/ethidium bromide staining-based fluorescence microscopic method relative to control; assay type: functional
EAT = test: Cytotoxicity against mouse EAT cells assessed as decrease in cell viability at 50 uM by trypan blue dye exclusion assay; assay type: functional, cell-based; conditions: TDE = time-dependent effect
[2] = Cytotoxicity against mouse EAT cells assessed as cell death at 50 uM after 16 hrs by trypan blue dye exclusion assay relative to control; assay type: functional
MDA-MB-231 [3] = test: Cytotoxicity against human MDA-MB-231 cells assessed as decrease in cell viability after 16 hrs by MTT assay; assay type: functional, cell-based; conditions: MDA-MB-231, 16 h
MDA-MB-231 [4] = test: Cytotoxicity against human MDA-MB-231 cells assessed as decrease in cell viability at 2 to 200 uM after 16 hrs by MTT assay; assay type: functional, cell-based

Structure (SMILES)	Activity [1] [%]	Activity (EAT)	Activity [2] [%]	IC50 (MDA-MB-231 [3]) [µM]	Activity (MDA-MB-231 [4])
COc1cc(C2=NOC(CN3CCN(c4nsc5ccccc45)CC3)C2)ccc1OCc1ccccc1 (stereo unspecified)	67.3	Tde	53	30	
c1ccc(C2=NOC(CN3CCN(c4nsc5ccccc45)CC3)C2)cc1 (stereo unspecified)		Tde	50		inactive
COc1cc(C2=NOC(CN3CCN(c4nsc5ccccc45)CC3)C2)cc(OC)c1OC (stereo unspecified)		Tde			inactive
COc1ccc(C2=NOC(CN3CCN(c4nsc5ccccc45)CC3)C2)cc1 (stereo unspecified)		Tde			Active
c1ccc(COc2ccc(C3=NOC(CN4CCN(c5nsc6ccccc56)CC4)C3)cc2)cc1 (stereo unspecified)	59	Tde	45.6		Active
Clc1ccc(C2=NOC(CN3CCN(c4nsc5ccccc45)CC3)C2)cc1 (stereo unspecified)	61.3	Tde		75	
Fc1ccc(C2=NOC(CN3CCN(c4nsc5ccccc45)CC3)C2)cc1 (stereo unspecified)		Tde			inactive
COc1ccc(C2=NOC(CN3CCN(c4nsc5ccccc45)CC3)C2)cc1OCc1ccccc1 (stereo unspecified)	50	Tde	44.6	95	
COc1ccc(C2=NOC(CN3CCN(c4nsc5ccccc45)CC3)C2)cc1OC (stereo unspecified)		Tde			Active
